# In patent publication US20050132430A1, “Igamete recruitment and developmental competence in mammals by inhibiting the de-nova sterol biosynthesis and/or promoting sterol efflux” (priority 2001, published 2005):
# What was measured:
# [1] = tested on: C57 black×DBA 2 F1 female mice; assay: Number of 2-cells in tuba of gonadotropin-stimulated female mice after statin administration and mating; assay type: in vivo, mouse; conditions: for No. of 2-cells in mated animals: pre-pubertal, Gnrh 12 I.U., hCG 10 I.U.
# Description: Prepubertal C57 black×DBA 2 F1 female mice (M&B A/S, Ry, Denmark) were stimulated to super-ovulation (11 a.m. at day 0) by i.p. Injections of 12 IU Menogon® (Ferring, Denmark) in 200 μL H2O. […] Half of the mice were given additional Injections of 1.6 mg lovastatin, by dissolving a tablet of Mevacor® (Merck Sharp and Dohme, NL) containing 40 mg lovastatin in 5 ml PBS and injecting 200 μL of the resulting slurry i.p. at three consecutive days, beginning at day 0. […] The mice were caged individually one hour later with a mature male mouse of the same strain and supplier (1 male per female). Female and male mice were separated at 9 a.m. at day 3, females were left alone for another 48 h. After killing of the females and dissection of the tuba ovarii, 2-cells were flushed into a plastic dish with culture medium (see later) by mounting a glass pipette in one end of the isolated tuba and blowing by mouth through a filter. The total number of 2-cells flushed per mouse were hereafter counted. The 2-cells were subsequently cultured in Universal IVF-medium (Medicult, Denmark) in an incubator (37° C., 95% atmospheric air, 5% CO2) in 4-well dishes (Nunclon 176740, Nunc, Denmark). After 4 days of culture, wells were scored and numbers of morula, blastocyst or degenerated entities were determined by use of a microscope:
# Prepubertal C57 black×DBA 2 F1 female mice (M&B A/S, Ry, Denmark) were treated as in example 1 but for a few deviations. […] In experiment B the dose of statins was decreased to 3×100 μg/animal and administered as in example 1. […] In experiment D the dose of gonadotropins were decreased gradually whereas the dose of statins was administered as in example 1.
# [2] = tested on: C57 black×DBA 2 F1 female mice; assay: as above; assay type: in vivo, mouse
# [3] = tested on: patients with type II hyperlipoprotelnemia; conditions: oral 40 mg daily for 4 months vs dietary management alone; cited from earlier work
# [4] = tested on: motile cell fraction of epididymis; assay: C/PL-ratio in motile cell fraction of epididymis after statin administration; assay type: in vivo, mouse; conditions: 3 i.p. injections of 1.0 mg lovastatin per 30 g body weight, male mice
# Description: Post-pubertal C57 black×DBA 2 F1 male mice (M&B A/S, Ry, Denmark) are used. Four mice are given 3 i.p. injections of 1.0 mg lovastatin per 30 g body weight by dissolving a tablet of Mevacor® (Merck Sharp and Dohme, NL) containing 40 mg lovastatin in 8 ml PBS and injecting 200 μL of the resulting slurry i.p. at 1 p.m. at day-6, -3 and -1, counting the day of epididymal sperm harvest as day 0. […] At 10 a.m on day 0 all mice are killed and the epididymis are prepared in physiological saline. Thereafter, the epididymis are transferred to a 1-mL culture well containing MEM (Gibco BRL, Scotland) supplemented with 2.3 mM pyruvate, 200 mM L-glutamine (Gibco BRL, Scotland), 20000 IU/L penicillin (Gibco BRL, Scotland), 20000 IU/L streptomycin (Gibco BRL, Scotland) and 0.2 mg/ml BSA (Sigma A-7030, Sigma-Aldrich, Denmark) and placed in an incubator (37° C., 95% atmospheric air: 5% CO2).
# After 1.5 hours of incubation, the upper liquid phase is aspirated and transferred to a new glass-vial and centrifuged. […] One half is subjected to sterol analysis as designated in the examples above and the total sterol content is calculated to consist of cholesterol, desmosterol, cholesta-7,24-dien-3β-ol, T-MAS and lanosterol. […] The C/PL-ratio is calculated for each individual animal.
# [5] = tested on: C57 black×DBA 2 F1 male mice; assay: Sperm quality in mice after statin administration; assay type: in vivo, mouse; conditions: statin administration as in example 6
# Description: The set-up involves the same animals and statin administration as in example 6. The animals are analysed by methods that are developed in order to evaluate the fertilising potential and sperm quality.
# [6] = tested on: gonadotrophin primed prepubertal mouse ovaries; assay: Free cholesterol, FF-MAS and progesterone in ovaries of gonadotrophin primed prepubertal mice (HPLC); assay type: in vivo; conditions: statin treatment on top of hCG
# Description: Ovaries were isolated pair-wise, weighed, freeze-dried, weighed again and subsequently extracted in 1.0 ml (v/v) 75% n-heptane: 25% isopropanol. […] Eluted material was detected by ultraviolet light absorption between 200-300 nm. […] Standards for cholesterol (Steraloids […]) and P4 (Sigma P-0130) were obtained commercially whereas the FF-MAS standards used was produced in the laboratory as described before (Baltsen et al., 1999).
# naked mouse oocytes (NO) = assay: IVF fertilisation of naked oocytes after IVM with cyclodextrin; assay type: cell-based
# Text: Mouse oocytes were isolated and cultured according to descriptions in […]. The NOs were divided into […] groups and cultured in dishes containing medium added either 0%o, 0.5%o, 2.0%o or 5%o hydroxypropyl-cyclodextrin (ICN 153540, ICN Ohio, U.S.A.). IVM and IVF conditions were the same as in example 6.
# [7] = tested on: mouse cumulus enclosed oocytes (CEO); assay: IVF fertilisation of cumulus enclosed oocytes after IVM with a statin; assay type: cell-based
# Description: Mouse oocytes were isolated and cultured according to descriptions in example 3 but for a single deviation in that the IVM culture medium was further supplemented with 1 mg/mL Fetuin (Sigma F-3385, Sigma, U.S.A.). […] The ethanol was necessary in order to dissolve Mevinolin in the medium. After in vitro maturation for 22 h, oocytes were transferred to a fertilisationn medium consisting of minimal essential medium (MEM) (21090-022, Gibco BRL, Scotland), 200 mM L-glutamine (Gibco BRL, Scotland), 20000 IU/L penicillin (Gibco BRL, Scotland), 20000 IU/L streptomycin (Gibco BRL, Scotland), 3 mg/ml BSA (Sigma A-7030, Sigma-Aldrich, Denmark), 2.3 mM sodium pyruvate (S-8636, Sigma), 10 mM ethylen diamine tetra acetic acid (EDTA, Merck 1.08418.0250) and 1 mg/mL Fetuin (Sigma F-3385, Sigma, U.S.A.). Prior to oocyte transfer into the fertilisation medium, mouse sperm for IVF was obtained the following way: A 6-9 month old C57 black×DBA 2 F1 male mouse (M&B A/S, Ry, Denmark) was killed and the epididymis prepared in physiological saline. Thereafter, the epididymis were cut in small pieces and the bulk material was transferred to four 1-mL culture well containing the 800 μL IVF-medium described above and subsequently placed in an incubator (37° C., 95% atmospheric air: 5% CO2). After 1.5 hours of incubation, 300 μL of the upper liquid phase of each of the four wells was aspirated and transferred to a new glass-vial. The resulting pool of motile sperm was counted in a counting chamber and 50000 motile sperm cells was added each oocyte culture. […] These oocytes were left for another 48 hours and subsequently counted according to the maturational status of the oocyte or the progression of the fertilised zygote, i.e. GV-oocytes, GVBD-oocytes, PB-oocytes, PB^2-oocytes (oocytes with a visible second polar body), 2-cells, 3-4-cells, 4+ cells (zygotes with more than 4 blastomeres) and degenerated cells (usually granulated or cells with extensive plasma-membrane ondulation).
compound,measurement,setting,value
"CC[C@H](C)C(=O)O[C@H]1C[C@@H](C)C=C2C=C[C@H](C)[C@H](CC[C@@H]3C[C@@H](O)CC(=O)O3)[C@H]21 [Mevacor, lovastatin]","development of cultured 2-cells into blastocysts, recovery rates",[1]; 2-cells cultured in vitro 4 days,indiscriminate to controls
same,number of 2-cells per animal,"[1]; 3×1.6 mg statin i.p. during follicular phase maturation, vs control",increased significantly
same,No. of 2-cells in mated animals,"[1]; Exp. A, 100 μg single, ovulation",27.5 ± 3.5
same,No. of 2-cells in mated animals,"[1]; Exp. A, 1000 μg single, ovulation",15.3 ± 7.3
same,No. of 2-cells in mated animals,"[1]; Exp. B, 100 μg single, ovulation",19.3 ± 4.1
same,No. of 2-cells in mated animals,"[1]; Exp. B, 3 × 100 μg multi, follicular phase",6.5 ± 1.0
same,more 2-cells as compared to mice stimulated with hormone alone,"[1]; hormone stimulated prepubertal female mice, average, FIG. 5",about 70%
same,No. of 2-cells in mated animals,"[2]; Exp. C, mature cycling, Gnrh 12 I.U., 3 × 1.0 mg multi, follicular phase",11.4 ± 2.9
same,No. of 2-cells in mated animals,"[2]; Exp. C, mature cycling, Gnrh 15 I.U., hCG 10 I.U., 1.0 mg single, ovulation",16.8 ± 3.4
same,No. of 2-cells in mated animals,"[2]; Exp. D, pre-pubertal, Gnrh 4 I.U., hCG 5 I.U., 3 × 1.0 mg multi, follicular phase",5
same,sperm motility,[3],small but statistically significant reduction
same,C/PL-ratios vs control group,[4],lower
same,fertilising potential and sperm quality vs control animals,[5],fertility premium
same,LH/hCG induced accumulation of FF-MAS,[6],completely blocks
same,extent of progesterone (steroid) production,[6],not influenced
same,tendency of decreasing tissue density of free cholesterol in the ovaries after hCG stimulation,[6],pronounced
"CC(O)COC[C@H]1O[C@@H]2O[C@H]3[C@H](O)[C@@H](O)[C@@H](O[C@H]4[C@H](O)[C@@H](O)[C@@H](O[C@H]5[C@H](O)[C@@H](O)[C@@H](O[C@H]6[C@H](O)[C@@H](O)[C@@H](O[C@H]7[C@H](O)[C@@H](O)[C@@H](O[C@H]8[C@H](O)[C@@H](O)[C@@H](O[C@H]1[C@H](O)[C@H]2O)O[C@@H]8COCC(C)O)O[C@@H]7COCC(C)O)O[C@@H]6COCC(C)O)O[C@@H]5COCC(C)O)O[C@@H]4COCC(C)O)O[C@@H]3COCC(C)O (stereo partly drawn) [hydroxypropyl-beta-cyclodextrin, hydroxypropyl-β-cyclodextrin]",fraction of fertilised oocytes (PB2-oocytes to 4+ cells) after IVF,"naked mouse oocytes (NO); 0.5, 2.0 or 5 per mille in IVM-medium of NOs vs control",increased
same,rate of degeneration,naked mouse oocytes (NO); cyclodextrin in the IVM-medium,not affected
Mevinolin,fraction of fertilised oocytes (PB2-oocytes to 4+ cells) after IVF,"[7]; 10 μM statin in IVM-medium 22 h, vs control and 7.5 I.U./L FSH",increased
same,state of development after 72 hours of embryo culture,[7]; vs control and FSH groups,more progressed state
same,cumulus expansion after the IVM culture period,[7]; vs control oocytes,extensive cumulus expansion
